# Assay results published in patent publication US20170360780A1, “PHARMACEUTICAL COMPOSITION COMPRISING BICYCLIC NITROGEN-CONTAINING AROMATIC HETEROCYCLIC AMIDE COMPOUND AS ACTIVE INGREDIENT” (Astellas Pharma Inc., priority 2014, published 2017).
# Experiments:
# [1] = test system: KMS-12-BM cells; experiment: Test Example 3: anti-tumor test on nude mice bearing KMS-12-BM human myeloma tumors; type: in vivo; conditions: 8 mg/kg oral once a day, 21 days, next day of final administration
# Protocol: (§1) KMS-12-BM cells (purchased) or OPM-2 cells (purchased) derived from human myeloma were prepared at 5×10^7 cells/mL of a mixed solution of PBS and Matrigel (registered trademark) in 1:1 ratio, and 0.1 mL was implanted to CAnN.Cg-Foxn1^nu/CrlCrlj mice (4-week-old male nude mice, Charles River Laboratories Japan, Inc.) under the skin on the back (5×10^6 cells/head). Dividing into groups by the tumor volume was performed when tumor cells were engrafted and the average tumor volume exceeded approximately 300 mm^3 (5 mice for each group). The test compound dissolved in 6% cyclodextrin aqueous solution (Sigma-Aldrich Co.) was orally administered by the dosage of 8 mg/kg once a day for 21 days in the test using KMS-12-BM cells, and for 7 days in the test using OPM-2 cells, respectively. 6% Cyclodextrin aqueous solution was orally administered for a solvent group (control group) once a day.
# (§2) The body weight and the tumor diameter were measured twice a week, and the anti-tumor effect and the effect on the body weight were examined. For calculation of the tumor volume, the formula below was used.
# (§3) [Tumor volume (mm^3)]=[major axis of tumor (mm)]×[minor axis of tumor (mm)]^2×0.5
# (§4) The inhibition rate of tumor growth and the rate of tumor regression were calculated from the average value of the tumor volume according to the formula below. […]
# [2] = test system: OPM-2 cells; experiment: Test Example 3: anti-tumor test on nude mice bearing OPM-2 human myeloma tumors; type: in vivo; conditions: OPM-2, nude mice, 8 mg/kg oral once a day, 7 days; next day of final administration
# Protocol: as §1, §2, §3, §4
# [3] = test system: RPMI 8226 cells; experiment: Test Example 3: anti-tumor test on SCID mice bearing RPMI 8226 human myeloma tumors; type: in vivo; conditions: RPMI 8226, SCID mice, 8 mg/kg oral once a day, 21 days; next day of final administration
# Protocol: RPMI 8226 cells (purchased) derived from human myeloma were prepared at 5×10^7 cells/mL of a mixed solution of PBS and Matrigel (registered trademark) in 1:1 ratio, and 0.1 mL was implanted to CB17/Icr-Prkdc^scid/CrlCrlj mice (5-week-old male SCID mice, Charles River Laboratories Japan, Inc.) under the skin on the back (5×10^6 cells/head). Dividing into groups by the tumor volume was performed when tumor cells were engrafted and the average tumor volume exceeded approximately 150 mm^3 (5 mice for each group). The test compound dissolved in 6% cyclodextrin aqueous solution was orally administered by the dosage of 8 mg/kg once a day for 21 days continuously. 6% Cyclodextrin aqueous solution was orally administered for a solvent group (control group) once a day.
# as §2, §3
# The inhibition rate of tumor growth and the rate of tumor regression were calculated from the average value of the tumor volume according to the formula below.
# Inhibition rate of tumor growth (%)=(1−average of tumor volume growth in each group/average of tumor volume growth in control group)×100 […]
# [4] = test system: KMS-12-BM cells; experiment: Test Example 4: anti-tumor test on nude mice bearing KMS-12-BM human myeloma tumors; type: in vivo; conditions: 17 days, next day of final administration
# Source text: (§5) KMS-12-BM cells and RPMI 8226 cells which are derived from human myeloma were respectively purchased from JCRB cell bank (National Institutes of Biochemical Innovation, Health and Nutrition), and ATCC. KMS-12-BM cells were implanted to CAnN.Cg-Foxn1^nu/CrlCrlj mice (4- to 5-week-old male nude mice, Charles River Laboratories Japan, Inc.), and RPMI 8226 cells to CB17/Icr-Prkdc^scid/CrlCrlj mice (4- to 5-week-old male SCID mice, Charles River Laboratories Japan, Inc.), respectively. Each of tumor cells were prepared at 5×10^7 cells/mL of a mixed solution of PBS and Matrigel (registered trademark) in 1:1 ratio, and 0.1 mL was implanted to the mice under the skin on the back (5×10^6 cells/head). Dividing into groups by the tumor volume was performed when tumor cells were engrafted under the skin and the average tumor volume exceeded approximately 150 mm^3 (5 mice for each group). The test compound dissolved in 6% cyclodextrin aqueous solution (Sigma-Aldrich Co.) was orally administered by the dosage of 8 mg/kg or 1 mg/kg once a day. 6% Cyclodextrin aqueous solution was also orally administered for the solvent group (control group) once a day. Oral administration was performed continuously for 17 days for KMS-12-BM cells, and 18 days for RPMI 8226 cells. The inhibition rate of tumor growth and the rate of tumor regression on the next day of the final administration were calculated by using the formula below.
# as §3
# (§6) Inhibition rate of tumor growth (%)=(1−average of tumor volume growth in each group/average of tumor volume growth in control group)×100
# (§7) Rate of tumor regression (%)=(1−average tumor volume in each group on measuring day/average tumor volume in each group when dividing groups)×100
# [5] = test system: RPMI 8226 cells; experiment: Test Example 4: anti-tumor test on SCID mice bearing RPMI 8226 human myeloma tumors; type: in vivo; conditions: RPMI 8226, SCID mice, 18 days, next day of final administration
# Source text: as §5, §3, §6, §7
# [6] = test system: KMS-12-BM cells; experiment: Test Example 5: combination use with lenalidomide, nude mice bearing KMS-12-BM tumors; type: in vivo, human; conditions: 27 days, next day of final administration
# Protocol: KMS-12-BM cells derived from human myeloma were prepared at 2.8×10^7 cells/mL of a mixed solution of PBS and Matrigel (registered trademark) in 1:1 ratio, and 0.1 mL was implanted to CAnN.Cg-Foxn1^nu/CrlCrlj mice (4-week-old male nude mice, Charles River Laboratories Japan, Inc.) under the skin on the back (2.8×10^6 cells/head). Dividing into groups by the tumor volume was performed when tumor cells were engrafted and the average tumor volume exceeded approximately 200 mm^3, and 5 mice were set for each group. The test compound dissolved in 6% cyclodextrin aqueous solution was orally administered by the dosage of 2 mg/kg once a day for 27 days. Lenalidomide (MedChemExpress.) was suspended in 6% cyclodextrin aqueous solution and was orally administered by the dosage of 100 mg/kg once a day for 27 days. The dosage of 2 mg/kg of the test compound and 100 mg/kg of lenalidomide were orally administered for a combination administered group once a day, respectively. 6% Cyclodextrin aqueous solution was orally administered for the solvent group (control group) once a day. The body weight and the tumor diameter were measured twice a week, and the anti-tumor effect and the effect on the body weight were examined. For calculation of the tumor volume, the formula below was used.
# as §3
# The inhibition rate of tumor growth and the rate of tumor regression were calculated from the average value of the average tumor volume according to the formula below.
# as §6, §7
# [7] = test system: KMS-12-BM cells; experiment: Test Example 6: combination use with lenalidomide, nude mice bearing KMS-12-BM tumors; type: in vivo, human; conditions: for Rate of tumor regression / Inhibition rate of tumor growth: KMS-12-BM, nude mice, 14 days, next day of final administration; for Anti-tumor effect of combination use with lenalidomide versus single administration: mice bearing tumors of human myeloma, combination use of lenalidomide and compound
# Protocol: KMS-12-BM cells derived from human myeloma were prepared at 5×10^7 cells/mL of a mixed solution of PBS and Matrigel (registered trademark) in 1:1 ratio, and 0.1 mL was implanted to CAnN.Cg-Foxn1^nu/CrlCrlj mice (4- to 5-week-old male nude mice, Charles River Laboratories Japan, Inc.) under the skin on the back (5×10^6 cells/head). Dividing into groups by the tumor volume was performed when tumor cells were engrafted under the skin and the average tumor volume exceeded approximately 200 mm^3. […] The test compound dissolved in 6% cyclodextrin aqueous solution was orally administered by the dosage of 8 mg/kg or 1 mg/kg once a day for 14 days continuously. Lenalidomide (MedChemExpress.) was suspended in 6% cyclodextrin aqueous solution and was orally administered by the dosage of 100 mg/kg once a day for 14 days continuously. The inhibition rate of tumor growth and the rate of tumor regression in each group on the next day of the final administration were calculated by using the formula below.
# as §3, §6
# Rate of tumor regression (%)=(1−average tumor volume in each group on measuring day/average tumor volume in each group when starting administration)×100
# The inhibition rate of tumor growth and the rate of tumor regression in each group on the next day of the final administration is shown in Table 6.
# [8] = test compound 8 mg/kg + lenalidomide 100 mg/kg oral once a day
# [9] = test compound 8 mg/kg + solvent, oral once a day
# [10] = test compound 1 mg/kg + lenalidomide 100 mg/kg oral once a day
# [11] = test compound 1 mg/kg + solvent, oral once a day
smiles,measurement,setting,value
"COc1ccc(CN2CCC(c3ccc4[nH]c(C(=O)N5CCN(Cc6ccc(C(F)(F)F)cc6)CC5)nc4c3)CC2)cn1 [Compound A1, (5-{1-[(6-methoxypyridin-3-yl)methyl]piperidin-4-yl}-1H-benzimidazol-2-yl){4-[4-(trifluoromethyl)benzyl]piperazin-1-yl}methanone]",Rate of tumor regression,[1],100% regression
same,Rate of tumor regression,[2],17% regression
same,Inhibition rate of tumor growth,[3],97% inhibition
same,Inhibition rate of tumor growth,[4]; 8 mg/kg oral once a day,99% inhibition
same,Inhibition rate of tumor growth,[5]; 8 mg/kg oral once a day,99% inhibition
same,Rate of tumor regression,[6]; test compound 2 mg/kg + lenalidomide 100 mg/kg oral once a day,100% regression
same,Rate of tumor regression,[6]; test compound alone 2 mg/kg oral once a day,24% regression
same,Rate of tumor regression,[7]; [8],39% regression
same,Inhibition rate of tumor growth,[7]; [9],100% inhibition
"COc1ccc(CN2CCC(c3ccc4[nH]c(C(=O)N5CCN(Cc6ccc(C(F)(F)F)cc6)CC5)nc4c3)CC2)cn1 [Compound A, (5-{1-[(6-methoxypyridin-3-yl)methyl]piperidin-4-yl}-1H-benzimidazol-2-yl) {4-[4-(trifluoromethyl)benzyl]piperazin-1-yl}methanone]",Anti-tumor effect of combination use with lenalidomide versus single administration,[7],stronger anti-tumor effect than each single administration thereof
"COc1cnc(CN2CCC(c3ccc4[nH]c(C(=O)N5CCN(Cc6ccc(C(F)(F)F)cc6)CC5)nc4c3)CC2)cn1 [Compound B1, (5-{1-[(5-methoxypyrazin-2-yl)methyl]piperidin-4-yl}-1H-benzimidazol-2-yl){4-[4-(trifluoromethyl)benzyl]piperazin-1-yl}methanone]",Rate of tumor regression,[4]; 8 mg/kg oral once a day,6% regression
same,Rate of tumor regression,[5]; 8 mg/kg oral once a day,4% regression
same,Rate of tumor regression,[7]; [8],42% regression
same,Rate of tumor regression,[7]; [9],20% regression
"COc1cnc(CN2CCC(c3ccc4[nH]c(C(=O)N5CCN(Cc6ccc(C(F)(F)F)cc6)CC5)nc4c3)CC2)cn1 [Compound B, (5-{1-[(5-methoxypyrazin-2-yl)methyl]piperidin-4-yl}-1H-benzimidazol-2-yl){4-[4-(trifluoromethyl)benzyl]piperazin-1-yl}methanone]",Anti-tumor effect of combination use with lenalidomide versus single administration,[7],stronger anti-tumor effect than each single administration thereof
"CCOc1cnc(CN2CCC(c3ccc4cc(C(=O)N5CCN(Cc6ccc(C#N)cc6)CC5)n(C)c4c3)CC2)cn1 [Compound C1, 4-({4-[(6-{1-[(5-ethoxypyrazin-2-yl)methyl]piperidin-4-yl}-1-methyl-1H-indol-2-yl)carbonyl]piperazin-1-yl}methyl)benzonitrile]",Rate of tumor regression,[4]; 1 mg/kg oral once a day,68% regression
same,Rate of tumor regression,[5]; 1 mg/kg oral once a day,25% regression
same,Rate of tumor regression,[7]; [10],64% regression
same,Rate of tumor regression,[7]; [11],40% regression
"CCOc1cnc(CN2CCC(c3ccc4cc(C(=O)N5CCN(Cc6ccc(C#N)cc6)CC5)n(C)c4c3)CC2)cn1 [Compound C, 4-({4-[(6-{1-[(5-ethoxypyrazin-2-yl)methyl]piperidin-4-yl}-1-methyl-1H-indol-2-yl)carbonyl]piperazin-1-yl}methyl)benzonitrile]",Anti-tumor effect of combination use with lenalidomide versus single administration,[7],stronger anti-tumor effect than each single administration thereof
"COc1cnc(CN2CCC(c3ccc4c(c3)cc(C(=O)N3CCN(Cc5ccc(C#N)cc5)CC3)n4C)CC2)cn1 [Compound D1, 4-({4-[(5-{1-[(5-methoxypyrazin-2-yl)methyl]piperidin-4-yl}-1-methyl-1H-indol-2-yl)carbonyl]piperazin-1-yl}methyl)benzonitrile]",Inhibition rate of tumor growth,[4]; 1 mg/kg oral once a day,71% inhibition
same,Inhibition rate of tumor growth,[5]; 1 mg/kg oral once a day,75% inhibition
same,Inhibition rate of tumor growth,[7]; [10],74% inhibition
same,Inhibition rate of tumor growth,[7]; [11],61% inhibition
"COc1cnc(CN2CCC(c3ccc4c(c3)cc(C(=O)N3CCN(Cc5ccc(C#N)cc5)CC3)n4C)CC2)cn1 [Compound D, 4-({4-[(5-{1-[(5-methoxypyrazin-2-yl)methyl]piperidin-4-yl}-1-methyl-1H-indol-2-yl)carbonyl]piperazin-1-yl}methyl)benzonitrile]",Anti-tumor effect of combination use with lenalidomide versus single administration,[7],stronger anti-tumor effect than each single administration thereof
"Nc1cccc2c1CN(C1CCC(=O)NC1=O)C2=O (stereo not drawn) [Lenalidomide, lenalidomide, reference compound]",Inhibition rate of tumor growth,[6]; lenalidomide alone 100 mg/kg oral once a day,53% inhibition
same,Inhibition rate of tumor growth,[7]; solvent + lenalidomide 100 mg/kg oral once a day,21% inhibition
